From patent US9896476B1, “Glycyrrhetic acid derivatives” (KING SAUD UNIVERSITY, priority 2017, dated 2018)

Experiments:
[1] = system: cotton pellet-induced granuloma; assay: Cotton pellet-induced granuloma bioassay; type: in vivo, rat; details: rat, compound-impregnated cotton pellets implanted s.c., 7 days, dose response 4, 7, 10 and 15 μmol
Procedure: An animal model cotton pellet-induced granuloma bioassay was used to determine ED50 for the compounds (2)-(4). Adult male Sprague Dawley rats (120-140 g), were used in the cotton pellet-induced granuloma bioassays. The rats were acclimated one week prior to use and allowed unlimited access to standard rat chow and water. Prior to the start of the experiment, the animals were randomly divided into groups of six rats each. Cotton pellet (35±1 mg) cut from dental rolls were impregnated with 0.2 ml (containing 0.01 mmol) of a solution of each of compounds (2)-(4) in chloroform, and the solvent was allowed to evaporate. Each cotton pellet was subsequently injected with 0.2 ml of an aqueous solution of antibiotics (1 mg penicillin G and 1.3 mg dihydrostreptomycin/ml). Two pellets were implanted subcutaneously, one in each axilla of the rat, under mild general anesthesia. One group of animals received the standard reference pharmaceutical indomethacin and the antibiotics at the same level. Pellets containing only the antibiotics were similarly implanted in control rats. Seven days later, the animals were sacrificed and the two cotton pellets, with adhering granulomas, were removed, dried for 48 h at 60° C. and weighed. The increment in dry weight (difference between the initial and final weight) was taken as a measure of the dry weight of granuloma±SEM. The dry weight of granuloma and the percentage reduction in dry weight of granuloma relative to the respective control value were calculated for all rats. The ED50 values were determined through dose response curves using doses of 4, 7, 10 and 15 μmol for each compound.

[2] = system: carrageenan-induced rat paw edema; assay: Carrageenan-induced rat paw edema; type: in vivo; details: 10 μmol/kg s.c. 1 h prior to carrageenan; increase between 0 h and 4 h
Procedure: Male albino rats weighing 120-150 g were used in these experiments. The rats were kept in an animal house under standard conditions of light and temperature with free access to food and water. The animals were randomly divided into groups of six rats each for each experimental and control group. The paw edema was induced by subplantar injection of […] of 2% carrageenan solution in saline (0.9%). […] A control group was injected with DMSO only. The volume of paw edema (ml) was determined by means of a plethysmometer immediately after carrageenan injection and 4 h later. The increase in paw volume between 0 h and 4 h after carrageenan injection was measured. The percentage protection against inflammation was calculated according to the following formula: % Protection=100%×(Vc−Vd)/Vc where Vc is the 4 h increase in paw volume in the control animals (control) and Vd is the 4 h increase in paw volume in the test animals. Data are expressed as the mean±SEM. Significant difference between the control and test groups was determined using Student's t-test and P values. The difference in results was considered significant when P<0.001.

[3] = system: pyloric ligation ulcer; assay: Pyloric ligation ulcer model (antiulcer activity); type: in vivo, rat; details: rats, oral 30 min prior to pyloric ligation, 4 h, compounds 100 mg/kg, omeprazole 40 mg/kg
Procedure: Pyloric ligation ulcer models were used to test each of compounds (2)-(4) for antiulcer activity. Male rats (140 and 175 g) were selected for pyloric ligation ulcer model experiments and divided into eleven groups consisting of six animals each. The rats were fasted overnight. One group received normal saline 2 ml/kg (negative control), the second group received omeprazole 40 mg/kg (positive control) and the other groups received each of the compounds (2)-(4) (100 mg/kg) by oral route 30 min prior to pyloric ligation. Animals were sacrificed 4 h later and their stomachs were opened to collect the gastric contents. The gastric contents were centrifuged at 1000 rpm for 10 min. One ml of the supernatant liquid was pipetted out and diluted to a total volume of 10 ml with distilled water. The solution was titrated against 0.01 N sodium hydroxide solution using Topfer's reagent to indicate the end point when the solution turned […]. The volume of NaOH consumed was taken as corresponding to the free acidity. Titration was further continued until the solution regained pink color. The volume of sodium hydroxide solution required to achieve the pink color was noted and total acidity calculated. After opening the stomach, the ulcer index was calculated.
The results are expressed as mean±SEM. The difference between groups was determined using the one way analysis of variance (ANOVA) followed by Dunnett's test. P<0.05 was considered significant.

[4] = target: T1, H+/K+-ATPase (Sus scrofa, UniProt P19156); assay: H+/K+-ATPase (proton pump) inhibition in membrane vesicles of stomach mucosa; type: biochemical; details: pig gastric membrane vesicles, 37° C.; pre-incubation pH (6.0 or 7.4) not given
T1 construct: Membrane vesicles containing H^+/K^+-ATPase were prepared from pig stomachs; from tissue; host or cells: pig gastric mucosa membrane vesicles
Procedure: Membrane vesicles containing H^+/K^+-ATPase were prepared from pig stomachs obtained from a local slaughter house. Pigs were fasted overnight before slaughter. The gastric mucosa of four stomachs was rinsed with cold saturated NaCl solution for 3-5 min. The superficial cells, cell debris plus the mucus were wiped off with the edge of a plastic ruler and paper towels. The mucosa was scraped off. About 100 g of scrapings were divided into portions of 10 g and homogenized in 0.25 M sucrose with seven strokes in a Potter-Elvehjem Teflon-glass homogenizer. […] The pellet was discarded. The supernatant was centrifuged at 75,000 g for 1 h. The resulting microsomal pellet was homogenized in 30 ml 0.25 M sucrose. Aliquots of 15 ml were transferred to 100 ml centrifuge tubes and layered on top of step gradients, from the bottom comprising 25 ml 37% sucrose (w/v) and 45 ml 7.5% Ficoll (w/v) in 0.25 M sucrose. The tubes were centrifuged at 75,000 g for 1 h in a 6×100 ml ME angle rotor at 4° C. The gradient was then fractionated by pumping Fluoroinert 70 through narrow tubing in a fractionating cap down to the bottom of the tube. Fractions are collected from top through a center hole in the fractionating cap. The yield of vesicles in a typical preparation is about 50-75 mg protein. In order to maintain a stable vesicular structure for a long period of time, the vesicles were frozen at −70° C. under nitrogen, and could then be kept for several months without decrease of H^+/K^+-ATPase activity. The ATPase activity was measured at 37° C. as the release of inorganic phosphate (Pi) from ATP. […] Then, the medium of pH 6.0 is adjusted with HEPES/Tris buffer to pH 7.4. The enzyme reaction is started by addition of nigericin and Tris/ATP. The total reaction volume is 1 ml, containing 20 μg vesicular protein, 4 mM MgCl2, 10 mM KCl, 20 μM nigericin, 2 mM Tris-ATP, 10 mM HEPES and additionally 2 mM Pipes for the pre-incubation medium at pH 6.0. After […] at 37° C., the reaction is stopped by the addition of […] of 50% trichloroacetic acid. The denatured protein was spun down and the Pi content is determined according to Le Bel et al. (1978) and based on the reduction of a phosphomolybdate complex by p-methyl-aminophenol sulfate in a copper acetate buffer or according to Carter and Karl (1982) based on the reaction of phosphomolybdate with the basic dye malachite green. […] IC50 values of the test compound at different pH values were compared with IC50 values of the standard. Statistical differences (P<0.05) were calculated by Student's t-test.

T1 sequence (P19156 2-1034 limits assumed): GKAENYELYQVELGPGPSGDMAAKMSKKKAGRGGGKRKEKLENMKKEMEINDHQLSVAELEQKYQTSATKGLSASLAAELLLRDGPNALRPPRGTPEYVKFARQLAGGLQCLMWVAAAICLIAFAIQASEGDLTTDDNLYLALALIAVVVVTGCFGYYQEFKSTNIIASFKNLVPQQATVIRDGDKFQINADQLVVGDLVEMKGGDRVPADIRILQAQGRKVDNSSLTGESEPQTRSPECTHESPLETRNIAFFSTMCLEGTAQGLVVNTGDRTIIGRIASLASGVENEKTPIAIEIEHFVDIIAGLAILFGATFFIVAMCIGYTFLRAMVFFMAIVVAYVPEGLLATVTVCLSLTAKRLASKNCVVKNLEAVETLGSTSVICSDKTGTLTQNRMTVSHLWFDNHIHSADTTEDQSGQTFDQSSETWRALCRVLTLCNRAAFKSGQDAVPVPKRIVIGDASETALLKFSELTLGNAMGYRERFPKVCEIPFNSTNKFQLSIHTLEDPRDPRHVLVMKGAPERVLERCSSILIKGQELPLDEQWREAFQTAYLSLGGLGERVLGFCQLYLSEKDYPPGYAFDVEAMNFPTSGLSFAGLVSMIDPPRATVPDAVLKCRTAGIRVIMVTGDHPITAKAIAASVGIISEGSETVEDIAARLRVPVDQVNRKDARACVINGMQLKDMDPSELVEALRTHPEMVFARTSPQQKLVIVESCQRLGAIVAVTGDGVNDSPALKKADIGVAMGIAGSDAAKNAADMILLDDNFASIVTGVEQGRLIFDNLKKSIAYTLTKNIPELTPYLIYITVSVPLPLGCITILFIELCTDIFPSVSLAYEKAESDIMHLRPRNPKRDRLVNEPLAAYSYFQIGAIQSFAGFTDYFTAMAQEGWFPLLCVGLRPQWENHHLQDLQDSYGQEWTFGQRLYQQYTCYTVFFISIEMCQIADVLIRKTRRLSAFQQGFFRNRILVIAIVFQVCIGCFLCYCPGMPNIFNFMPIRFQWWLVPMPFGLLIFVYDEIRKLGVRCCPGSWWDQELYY
T1 sequence (P18434 whole entry partner): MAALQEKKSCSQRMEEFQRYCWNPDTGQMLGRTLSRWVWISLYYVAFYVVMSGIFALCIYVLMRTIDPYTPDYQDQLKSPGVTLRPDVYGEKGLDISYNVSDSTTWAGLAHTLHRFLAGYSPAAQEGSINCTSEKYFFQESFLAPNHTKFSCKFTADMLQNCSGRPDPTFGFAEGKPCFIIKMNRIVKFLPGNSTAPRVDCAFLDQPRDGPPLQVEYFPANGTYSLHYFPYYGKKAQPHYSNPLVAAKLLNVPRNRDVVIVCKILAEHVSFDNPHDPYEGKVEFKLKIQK

SMILES	The anti-inflammatory activity ED50 [1]	The anti-inflammatory activity ED50 ([1]; listed as indomethacin)	Increase in paw edema (ml) ± SEM [2]	Free acid ([3]; gastric contents)	Total acid ([3]; gastric contents)	Ulcer Index [3]	IC50 [4]
COc1ccc2c(c1)c(CC(=O)O)c(C)n2C(=O)c1ccc(Cl)cc1 [Indomethacin, reference compound]	9.568 ± 0.098 µmol	9.568 µmol	0.25 ± 0.0005 mL				
COc1ccc2[nH]c([S+]([O-])Cc3ncc(C)c(OC)c3C)nc2c1 (stereo not shown) [Omeprazole, reference compound]				0.43 mEq/L	0.33 mEq/L	3.31	66.1 ± 1.11 µM
